Biological target: T1, catalytic domain of Human PARP (Homo sapiens, UniProt P09874)
T1 construct: The catalytic domain of Human PARP was cloned and prepared; made in house
Assay: Biacore surface plasmon resonance affinity assay
Type: binding
Details: pKD=-log10 KD, KD in mol/L; Biacore T100, 25° C.; read-out: pKD (converted)
Description: Dissociation Constant (KD) from Surface Plasmon Resonance
The catalytic domain of Human PARP was cloned and prepared as described in Kinoshita, et al. FEBS Letters (2006), 556:43-46. Purified enzyme was stored at −80° C. in 25 mM Tris(hydroxymethyl)aminomethane (‘Tris’) pH 7.4, 150 mM NaCl, 2 mM dithiothreitol (DTT) at a concentration of 6 mg/mL.
Biacore affinity assays for test compounds were conducted on a Biacore T100 (GE Healthcare) as follows. A Series S Sensor Chip CM5 (part number BR-1006-68, GE Healthcare) was activated for amide coupling with an Amine Coupling Kit (part number BR-1000-50, GE Healthcare) as described by the manufacturer. The mobile phase buffer consisted of Biacore buffer HBS-P (part number BR-1003-68, GE Healthcare) supplemented with 1% v/v dimethylsulfoxide (DMSO), 0.5 mM Tris(2-carboxyethyl)phosphine hydrochloride (TCEP), and 5 mM MgCl2. Enzyme samples (2 μL/6 mg/mL) stored at −80° C. were diluted to 0.080 mg/mL with 10 mM 4-morpholineethanesulfonic acid (MES) pH 6.5 and then mounted on the activated Biacore CM5 chip at a flow rate of 10 μL/min for 240 seconds. […] Test compounds were diluted 9 times 2-fold serially in mobile phase buffer (listed above) at 1% v/v DMSO final to generate a concentration gradient bracketing their anticipated KDs. Biacore mounted PARP was given a 1 minute exposure (association phase) to various concentrations of test compounds to observe a steady state equilibrium or an on-rate. The exposure was followed with a dissociation phase of 5 minutes. The association and dissociation phases were at a flow rate of 50 μL/min and a temperature of 25° C.
Parameters Rmax (response at saturation) and KD (binding constant) were calculated through a nonlinear least squares fitting of the equation to the data by use of the Biacore T100 analysis software.
Parameter optimization was through a nonlinear least squares analysis of the association phase Response=Rmax*(1−exp(−(kon[cmpd]+koff)*t)) and dissociation phase Response=[…] by use of the Biacore T100 analysis software. The binding constant KD was calculated from the definition KD=koff/kon

T1 sequence (P09874 788-1014 limits assumed): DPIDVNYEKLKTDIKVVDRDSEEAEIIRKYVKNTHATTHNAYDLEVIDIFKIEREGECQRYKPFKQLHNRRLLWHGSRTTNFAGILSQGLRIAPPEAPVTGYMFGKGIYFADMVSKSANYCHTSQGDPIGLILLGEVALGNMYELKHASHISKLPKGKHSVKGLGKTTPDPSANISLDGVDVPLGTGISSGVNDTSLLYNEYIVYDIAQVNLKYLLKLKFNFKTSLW

Kd [µM] | Compound
> 10 | CC1Oc2ccc(-c3ccc(C(N)=O)cc3)cc2NC1=O (stereo not drawn) [Compound 150, 4-(2-Methyl-3-oxo-3,4-dihydro-2H-benzo[b][1,4]oxazin-6-yl)benzamide]
> 10 | CNC(=O)c1ccc(-c2ccc3c(c2)NC(=O)C(C)O3)cc1 (stereo not drawn) [Compound 151, N-Methyl-4-(2-methyl-3-oxo-3,4-dihydro-2H-benzo[b][1,4]oxazin-6-yl)benzamide]
> 10 | CONC(=O)c1ccc(-c2ccc3c(c2)NC(=O)C(C)O3)cc1 (stereo not drawn) [Compound 152, N-Methoxy-4-(2-methyl-3-oxo-3,4-dihydro-2H-benzo[b][1,4]oxazin-6-yl)benzamide]
> 10 | CC1Oc2ccc(-c3ccc(C(=O)NC4CCCCC4)cc3)cc2NC1=O (stereo not drawn) [Compound 153, N-Cyclohexyl-4-(2-methyl-3-oxo-3,4-dihydro-2H-benzo[b][1,4]oxazin-6-yl)benzamide]
> 10 | CC1Oc2ccc(-c3ccc(C(=O)N4CCN(C)CC4)cc3)cc2NC1=O (stereo not drawn) [Compound 154, 2-Methyl-6-(4-(4-methylpiperazine-1-carbonyl)phenyl)-2H-benzo[b][1,4]oxazin-3(4H)-one]
> 10 | CC(=O)Nc1ccc(-c2ccc3c(c2)NC(=O)C(C)O3)cc1 (stereo not drawn) [Compound 155, N-(4-(2-Methyl-3-oxo-3,4-dihydro-2H-benzo[b][1,4]oxazin-6-yl)phenyl)acetamide]
≥ 100 | CC1Oc2ccc(CN3CCN(CC(=O)O)CC3)cc2NC1=O (stereo not drawn) [Compound 168, 2-(4-((2-Methyl-3-oxo-3,4-dihydro-2H-benzo[b][1,4]oxazin-6-yl)methyl)piperazin-1-yl)acetic acid]
> 10 | CC1Oc2ccc(CN3CCC(CC(=O)O)CC3)cc2NC1=O (stereo not drawn) [Compound 172, 2-(1-((2-Methyl-3-oxo-3,4-dihydro-2H-benzo[b][1,4]oxazin-6-yl)methyl)piperidin-4-yl)acetic acid]
1.26 to 10 | CC(C)CNC(=O)CN1CCN(Cc2ccc3c(c2)NC(=O)C(C)O3)CC1 (stereo not drawn) [Compound 173, N-Isobutyl-2-(4-((2-methyl-3-oxo-3,4-dihydro-2H-benzo[b][1,4]oxazin-6-yl)methyl)piperazin-1-yl)acetamide]

Second part, the molecule before the results:

Compound | Kd [µM]
O=C1COc2ccc(CCN3CC=C(c4ccc(Cl)cc4)CC3)cc2N1 [Compound 127, 6-(2-(4-(4-Chlorophenyl)-5,6-dihydropyridin-1(2H)-yl)ethyl)-2H-benzo[b][1,4]oxazin-3(4H)-one] | 1.26 to 10
O=C1COc2ccc(CCN3CCN(c4ccncc4)CC3)cc2N1 [Compound 128, 6-(2-(4-(Pyridin-4-yl)piperazin-1-yl)ethyl)-2H-benzo[b][1,4]oxazin-3(4H)-one] | 12.6 to 79.4
O=C1COc2ccc(CCN3CCN(c4nc5ccccc5[nH]4)CC3)cc2N1 [Compound 129, 6-(2-(4-(1H-Benzo[d]imidazol-2-yl)piperazin-1-yl)ethyl)-2H-benzo[b][1,4]oxazin-3(4H)-one] | 12.6 to 79.4
O=C1COc2ccc(CCN3CCC(c4ccc(F)cc4)CC3)cc2N1 [Compound 130, 6-(2-(4-(4-Fluorophenyl)piperidin-1-yl)ethyl)-2H-benzo[b][1,4]oxazin-3(4H)-one] | 1.26 to 10
O=C1COc2ccc(CCN3CCC(c4ccc(Cl)cc4)CC3)cc2N1 [Compound 131, 6-(2-(4-(4-Chlorophenyl)piperidin-1-yl)ethyl)-2H-benzo[b][1,4]oxazin-3(4H)-one] | 1.26 to 10
CC1Oc2ccc(CN(C)CC(=O)O)cc2NC1=O (stereo not drawn) [Compound 132, 2-(Methyl((2-methyl-3-oxo-3,4-dihydro-2H-benzo[b][1,4]oxazin-6-yl)methyl)amino)acetic acid] | 1.26 to 10
CC1Oc2ccc(CN(C)CC(=O)NCc3ccccc3)cc2NC1=O (stereo not drawn) [Compound 134, N-Benzyl-2-(methyl((2-methyl-3-oxo-3,4-dihydro-2H-benzo[b][1,4]oxazin-6-yl)methyl)amino)acetamide] | 1.26 to 10
CC1Oc2ccc(CN(C)CC(=O)N(C)Cc3ccccc3)cc2NC1=O (stereo not drawn) [Compound 135, N-Benzyl-N-methyl-2-(methyl((2-methyl-3-oxo-3,4-dihydro-2H-benzo[b][1,4]oxazin-6-yl)methyl)amino)acetamide] | 12.6 to 79.4
CC1Oc2ccc(CN(C)CC(=O)NCc3ccc(Cl)cc3)cc2NC1=O (stereo not drawn) [Compound 136, N-(4-Chlorobenzyl)-2-(methyl((2-methyl-3-oxo-3,4-dihydro-2H-benzo[b][1,4]oxazin-6-yl)methyl)amino)acetamide] | 1.26 to 10
CC1Oc2ccc(CN(C)CC(=O)N(C)Cc3ccc(Cl)cc3)cc2NC1=O (stereo not drawn) [Compound 137, N-(4-Chlorobenzyl)-N-methyl-2-(methyl((2-methyl-3-oxo-3,4-dihydro-2H-benzo[b][1,4]oxazin-6-yl)methyl)amino)acetamide] | ≥ 100
CC1Oc2ccc(CN(C)CC(=O)N3CCCCC3)cc2NC1=O (stereo not drawn) [Compound 138, 2-Methyl-6-((methyl(2-oxo-2-(piperidin-1-yl)ethyl)amino)methyl)-2H-benzo[b][1,4]oxazin-3(4H)-one] | 12.6 to 79.4
CC1Oc2ccc(CN(C)CC(=O)NCC3CCCCC3)cc2NC1=O (stereo not drawn) [Compound 140, N-(Cyclohexylmethyl)-2-(methyl((2-methyl-3-oxo-3,4-dihydro-2H-benzo[b][1,4]oxazin-6-yl)methyl)amino)acetamide] | 1.26 to 10
CC1Oc2ccc(-c3cccc(C(=O)O)c3)cc2NC1=O (stereo not drawn) [Compound 141, 3-(2-methyl-3-oxo-3,4-dihydro-2H-benzo[b][1,4]oxazin-6-yl)benzoic acid] | 1.26 to 10
CC1Oc2ccc(-c3cccc(C(N)=O)c3)cc2NC1=O (stereo not drawn) [Compound 142, 3-(2-Methyl-3-oxo-3,4-dihydro-2H-benzo[b][1,4]oxazin-6-yl)benzamide] | 1.26 to 10
CNC(=O)c1cccc(-c2ccc3c(c2)NC(=O)C(C)O3)c1 (stereo not drawn) [Compound 143, N-Methyl-3-(2-methyl-3-oxo-3,4-dihydro-2H-benzo[b][1,4]oxazin-6-yl)benzamide] | > 10
CCNC(=O)c1cccc(-c2ccc3c(c2)NC(=O)C(C)O3)c1 (stereo not drawn) [Compound 144, N-Ethyl-3-(2-methyl-3-oxo-3,4-dihydro-2H-benzo[b][1,4]oxazin-6-yl)benzamide] | 12.6 to 79.4
CC1Oc2ccc(-c3cccc(C(=O)N4CCCC4)c3)cc2NC1=O (stereo not drawn) [Compound 145, 2-Methyl-6-(3-(pyrrolidine-1-carbonyl)phenyl)-2H-benzo[b][1,4]oxazin-3(4H)-one] | > 10
CC1Oc2ccc(-c3cccc(C(=O)N4CCOCC4)c3)cc2NC1=O (stereo not drawn) [Compound 146, 2-Methyl-6-(3-(morpholine-4-carbonyl)phenyl)-2H-benzo[b][1,4]oxazin-3(4H)-one] | > 10
CC1Oc2ccc(-c3cccc(C(=O)NCc4ccccc4)c3)cc2NC1=O (stereo not drawn) [Compound 147, N-Benzyl-3-(2-methyl-3-oxo-3,4-dihydro-2H-benzo[b][1,4]oxazin-6-yl)benzamide] | > 10
CC(=O)Nc1cccc(-c2ccc3c(c2)NC(=O)C(C)O3)c1 (stereo not drawn) [Compound 148, N-(3-(2-Methyl-3-oxo-3,4-dihydro-2H-benzo[b][1,4]oxazin-6-yl)phenyl)acetamide] | > 10
CC(C)NS(=O)(=O)c1cccc(-c2ccc3c(c2)NC(=O)C(C)O3)c1 (stereo not drawn) [Compound 149, N-Isopropyl-3-(2-methyl-3-oxo-3,4-dihydro-2H-benzo[b][1,4]oxazin-6-yl)benzenesulfonamide] | > 10
